Test results reported in patent US20070087982A1, “Methods of treatment and diagnosis using modulators of virus-induced cellular gene sequences” (priority 2003, published 2007).

What was measured:
HIV-infected MT-2 cells = experiment: HIV-induced syncytia formation in MT-2 cells; type: cell-based, human; details: 48 hours post infection
Protocol: The panels of FIG. 7 show the relative extent of HIV-induced syncytia formation in MT-2 cells at 48 hours post infection under various conditions. “Control” cells are HIV-infected cells, but are not treated with any test agent. “DMSO” treatment alone is also included as a control. Other treatments include, AZT, PP3 and PP2, all solubilized in DMSO.

WNV (NY1999) = experiment: Infectious WNV in culture supernatant of SKN-MC cells (plaque assay on Vero cells); type: cell-based, West Nile virus; details: multiplicity of infection 5, 20 μM, 22 hours post-infection (20 h post-PP2 addition)
From the text: SKN-MC neutoblastoma cells were infected with WNV at a multiplicity of 5.

HIV-1 89.6 [1] = experiment: HIV replication assay (HIV-1 p24 antigen ELISA) in HIV-infected THP-1 and MT-2 cells; type: cell-based; details: MT-2 cells infected with HIV 89.6; continued presence of 10 μM
WNV E protein = experiment: Endo H / PNGase F sensitivity of WNV E protein in infected Vero cells (western blot); type: cell-based, West Nile virus; details: WNV multiplicity 3, PP2 added 1 hpi, 24 hpi, consistent at 48 h
Protocol: Inhibition of src-family kinases (SFKs) may result in mis-localization or aberrant trafficking of WNV proteins, thereby interfering with formation of infectious particles. To test this hypothesis, lysates from WNV-infected cells (with or without PP2) were treated with Endoglycosidase H (Endo H) or Peptide N-glycosidase F (PNGase F).
Endo H removes immature high-mannose glycans from proteins. High-mannose structures are added to proteins in the endoplasmic reticulum (ER). Such structures are trimmed and further modified in the Golgi, conferring resistance to endo H. Sensitivity to endo H is therefore indicative of proteins that have not advanced beyond the endoplasmic reticulum in the secretory pathway (Maley, et al., Anal. Biochem. 180:195, 1989.
PNGase F will remove all glycan moieties regardless of modification.
Methods. Vero cells were infected with WNV (multiplicity=3) and treated with PP2 (or DMSO as a control) 1 h post-infection (hpi). At 24 or 48 hpi, cells were lysed in buffer containing 1% NP-40. Lysates were denatured and treated with endo H or PNGase F for 1 h. Samples were resolved by SDS-PAGE, and WNV E was detected by western blotting.

WNV RNA = experiment: Quantitative RT-PCR (Taqman) of WNV RNA within infected SKN-MC cells; type: cell-based, West Nile virus; details: 4 hours post PP2 addition, normalized to β-actin
Protocol: Specifically, cells were prepared as described above in relation to FIG. 8B. Four hours post fresh PP2 addition, RNA was isolated from 200 μl of cell lysate by Trizol reagent (Invitrogen), and 1 μg total RNA was used in a quantitative RT-PCR reaction (Taqman) using WNV-specific primer and probe set and standards. An additional RT-PCR was performed using β-actin-specific primers and probe, for an internal control. WNV RNA quantities were normalized to the β-actin values.

WNV = experiment: Infectious WNV within infected SKN-MC cell lysates (plaque assay on Vero cells); type: cell-based, West Nile virus
Protocol: Additionally, infectious virus within infected cell lysates was decreased almost 10^6-fold four hours post-addition of PP2 (FIG. 8B, gray bars; and FIG. 15, left panel). […] Specifically, SKN-MC cells were infected with WNV as above. At 2 hpi, cells were treated with PP2 at the indicated final concentrations. At 20 hpi, cells were re-fed with media containing fresh PP2 at the same concentration. Cells were washed 3-times with phosphate buffered saline (PBS), resuspended in 250 μl PBS, and then lysed by 3 successive freeze/thaws. Lysates were centrifuged at 13,000×g for 5 minutes, followed by collection of the supernatant. Infectious virus in soluble lysate was measured by plaque assay on Vero cells. Samples were collected 4-hours post-addition of fresh PP2 (gray bars) and 24 hours post addition of fresh PP2 (black bars). 24-hours post-addition of PP2, virus within the infected cell was approximately 500-fold lower, indicating some recovery from the effect of the drug (FIG. 8B, black bars).

HIV-1 89.6 [2] = experiment: HIV replication assay (HIV-1 p24 antigen ELISA) in HIV-infected THP-1 and MT-2 cells; type: cell-based; details: for Extent of PMO-induced Inhibition of HIV replication: HIV-1 89.6, measured by gag p24 production, gene-specific PMO antisense
From the text: Introduction of antisense PMO into HIV-infected THP-1 or MT-2 cells. Antisense PMO molecules, for delivery purposes, are typically converted to a paired duplex together with a partially complementary cDNA oligonucleotide in the weakly basic delivery reagent ethoxylated polyethylenimine (EPEI) (Summerton, supra). The anionic complex binds to the cell surface, is taken up by endocytosis and eventually released into the cytosol. A protocol for optimum uptake of antisense PMO in THP-1 and MT-2 cells was developed using a modification of the EPEI method. PMO-AS were obtained from GeneTools (Genetools, LLC, One Summerton Way, Philomath, Oreg. 97370).
Briefly, loading into target cells was accomplished by complexing the PMO with a proprietary loading reagent, Ethoxylated Polyethylenimine (EPEI). Target cells (MT-2 or THP-1) were introduced into snap cap conical tubes (5×10^5 cells/tube) in 900 μl serum free RPMI and the EPEI-PMO complex was added for 4 hours at 37° C. in a 7% CO2 atmosphere. The PMO-EPEI complex was prepared by diluting 5 μl PMO in 40 μl sterile RNase-free water, adding 5 μl EPEI, vortexing and incubating the sample for 20 minutes at room temperature. The sample was then mixed with 50 μl serum-free RPMI and added to the target cells to yield a final volume of 1 ml. At the end of the loading period, cells were gently pelleted and the PMO solution was removed by aspiration. After a further wash, cells were incubated in complete RPMI for 12 hrs prior to HIV infection to allow for recovery and initiation of PMO action.
HIV-1 Infection. PMO-treated THP-1 or MT-2 cells were infected with 50 μl of concentrated HIV-1 89.6 diluted to 1 ml in serum-free RPMI. The following control cultures were identically infected: (i) to control for any non-specific effect of the loading protocol, cells exposed to EPEI alone during the loading procedure; (ii) as a positive control for normal HIV infection, cells that were not exposed to either EPEI or EPEI-PMO; (iii) as a control for HIV inhibition, cells infected with HIV in the presence of 2 μM AZT and maintained in AZT throughout.
Cells were exposed to HIV for 4 hours. The inoculum was removed by 3 cycles of pelleting and rinsing. The cells were resuspended in 1.5 ml of complete RPMI and 0.5 ml immediately removed at Time 0 to leave a final volume of 1 ml. The Time 0 sample served as a measure of residual virus. At each harvest time (T1 through T4), 0.5 ml of supernatant was removed and replaced with an equal volume of complete RPMI. Samples were stored at −80° C. until evaluation using a p24 ELISA assay (described below). Each experimental variable and control was performed in duplicate. T1 through T4 typically corresponded to 16, 24, 40 and 48 hrs PI, respectively.
Validation of KSHV-induced gene sequences; HIV-1 p24 antigen ELISA. To monitor the effect of PMO-targeting of cellular proteins on HIV replication, supernatants harvested from PMO-treated and control THP and MT-2 cells were assayed using an HIV p24 antigen ELISA. The rationale behind this assay is described in the following paragraph.
The HIV-1 gag protein p24 is the major internal structural component of the virion core. The Coulter p24 assay is an enzyme-liked immunosorbent assay (ELISA) performed using a commercially available kit (Beckman Coulter). It was developed specifically for the detection and quantitation of HIV-1 p24 in plasma or serum, for clinical purposes, or in tissue culture supernatants, to monitor virus replication. Each kit contains a 96-well microtiter tray pre-coated with a monoclonal antibody to p24. A specimen of plasma, serum or tissue culture supernatant is added to each well along with a viral lysis buffer and incubated to allow any p24 antigen present to bind to the coated well. Following a wash, biotinylated human anti-HIV IgG is added and incubated to allow complexing to any bound p24. Following another wash, strepatavidin-HRP is added to complex with any bound biotinylated complexes. […]

[3] = test system: mitochondrial respiration in viable cells; experiment: XTT respiration assay to assess compound toxicity; type: cell-based; details: at the concentrations used (20/40 μM Doxepin, 50/100 μM Pyrilamine, 50/100 μM Acyclovir, 20 μM PP2, 20 μM PP3)
From the text: The agents tested are cross-referenced to the respective bar graphs as shown in insert of the right panel. […] Briefly, the XTT assay is based on the cleavage of XTT (sodium 3-[1-(phenylamino-carbonyl)-3,4-tetrazolium]-bis (4-methoxy-6-nitro) benzene sulfonic acid hydrate) to form formazan by mitochondrial respiration in viable cells (see, e.g., Marshall et al., Growth Regul. 5:69-84, 1995).

c-yes mRNA = experiment: Quantitative RT-PCR of c-yes mRNA in siRNA-transfected Huh7 cells; type: cell-based, human; details: 2 μl of 20 μM siRNA per 300,000 cells, harvested 24 hpi
Protocol: Huh7 cells were transfected with either of c-yes-specific siRNAs 214 or 316, or a control siRNA directed against Lamins A and C. Transfection of 300,000 cells was carried out with 2 μl of a 20 μM siRNA (Dharmacon) and 1 μl Oligofectamine (Invitrogen) according to the manufacturer's protocol. Cells were […] 24 hours post-transfection, and cells and supernatant harvested at 24 hpi. 1 μg total cellular RNA was used for quantitative RT-PCR with c-yes-specific primers.

[4] = PMO-treated HIV-infected MT-2 cells
[5] = PMO-treated HIV-infected THP-1 cells

Molecule	Extent of PMO-induced Inhibition of HIV replication (HIV-1 89.6 [2])	inhibition of HIV replication (HIV p24 gag production) (HIV-1 89.6 [2]; [4])	inhibition of HIV replication (HIV p24 gag production) (HIV-1 89.6 [2]; [5])	other results
Cc1cn([C@H]2C[C@H](N=[N+]=[N-])[C@@H](CO)O2)c(=O)[nH]c1=O [AZT]				HIV-induced syncytia formation (HIV-infected MT-2 cells): substantially reduced syncytia formation
CC(C)(C)n1nc(-c2ccc(Cl)cc2)c2c(N)ncnc21 [PP2, 4-Amino-5-(4-chlorophenyl)-7-(t-butyl)pyrazolo[3,4-d]pyrimidine]				decrease of infectious WNV in the supernatant (WNV (NY1999)): 30 fold; HIV-induced syncytia formation (HIV-infected MT-2 cells): substantially reduced syncytia formation; HIV p24 production (HIV-1 89.6 [1]): substantial decrease; proportion of endo H-resistant population of WNV E protein (WNV E protein): dramatically decreased; viral RNA within infected cells, treated vs untreated (WNV RNA): no significant difference; virus within the infected cell, lower than untreated (WNV; 24 hours post-addition of fresh PP2): approximately 500 fold; decrease of infectious virus within infected cell lysates (WNV; four hours post-addition of fresh PP2): ~10^6 fold; anti-HIV activity (p24 production) (HIV-1 89.6 [2]; HIV-infected cells, 20 μM): substantial inhibition of HIV
CN(C)CCC=C1c2ccccc2COc2ccccc21 [doxepin]				compound toxicity (XTT respiration assay) [3]: Except for the higher concentration of doxepin, the compounds were not toxic
ARF1 (antisense ATGCTTGTGGACAGGTGGAAGGACA; all phosphorodiamidate morpholino (PMO))	(negative)	little or no affect on HIV replication		
HMG20B (antisense CGCCCAGCATCTTGGTGATCTCGGG; all phosphorodiamidate morpholino (PMO))	positive	particularly effective at reproducibly inhibiting HIV replication	particularly effective at reproducibly inhibiting HIV replication	
HRH1 (antisense GCGAAAGAGCAGCCGCCAGTTATGG; all phosphorodiamidate morpholino (PMO))	positive	particularly effective at reproducibly inhibiting HIV replication	particularly effective at reproducibly inhibiting HIV replication	
YES (antisense TTTCTTTACTTTTAATGCAGCCCAT; all phosphorodiamidate morpholino (PMO))	positive	particularly effective at reproducibly inhibiting HIV replication	particularly effective at reproducibly inhibiting HIV replication	
c-yes-specific siRNA 214 (guide AACGCCUUUUGGAGGUGCAUC; chemistry not given here; listed as Homo sapiens)				c-yes mRNA (c-yes mRNA): reduction of c-yes mRNA
